What was measured:
Triticum aestivum = assay: Drought stress test on wheat Part D, reduction in damage intensity from fresh weights; format: in vivo; settings: efficacy = reduction in damage intensity (fresh weight) under drought stress, at least three repeats
Source text: Wheat grains were sown in a standardized number in sandy loam soil plastic pots, covered with soil or sand and grown in a greenhouse under good growth conditions. Pots with uneven degrees of emergence were excluded prior to the start of the trial. The treatment with test substances was effected at the early leaf stage (BBCH10-BBCH13). To assure uniform water supply, the potted plants were supplied with water by dam irrigation prior to substance application. The inventive compounds were first formulated as wettable powders (WP) or dissolved in a solvent mixture. The further dilution was effected with water supplemented with 0.2% wetting agent (e.g. agrotin). The finished spray liquor was sprayed onto the green parts of the plant at an equivalent water application rate of 600 l/ha. Substance application was followed immediately by stress treatment of the plants. Drought stress was induced by gradual drying out under the following conditions: “Day”: 14 hours with illumination at 26-30° C. “Night”: 10 hours without illumination at 18-20° C. The duration of the respective stress phases was guided mainly by the condition of the stressed control plants. It was ended (by re-irrigating and transfer to a greenhouse with good growth conditions) as soon as irreversible damage was observed on the stressed control plants. The end of the stress phase was followed by an about 7-day recovery phase, during which the plants were once again kept under good growth conditions in a greenhouse. The exact duration of the recovery phase was variable for reasons related to the trial. At the end of the recovery phase, the fresh weights of the plant parts above ground were determined. By comparison with unstressed control plants which were kept under good growth conditions over the entire duration of the trial, percentage damage intensities were first calculated from the fresh weight values. The reduction in damage intensity resulting from treatment with test substance was then calculated by the following formula: [formula] EF: Efficacy DIs: Damage intensity of the stressed control plants DIt: Damage intensity of the stressed plants treated with test compound The values reported in table D-1 below are results from at least three repeats. BRSNS=Brassica napus TRZAS=Triticum aestivum

[1] = biological target: T1, phosphatase ABI1 via the co-regulator RCAR11/PYR1 (Arabidopsis thaliana, UniProt O49686+P49597); assay: In vitro inhibition of the phosphatase ABI1 via the co-regulator RCAR11/PYR1, MUP dephosphorylation; format: biochemical; parameters: dose or concentration left out as unconfirmed; settings: in a solution of DMSO and water; fluorescence at 460 nm
T1 sequence (O49686 1-191): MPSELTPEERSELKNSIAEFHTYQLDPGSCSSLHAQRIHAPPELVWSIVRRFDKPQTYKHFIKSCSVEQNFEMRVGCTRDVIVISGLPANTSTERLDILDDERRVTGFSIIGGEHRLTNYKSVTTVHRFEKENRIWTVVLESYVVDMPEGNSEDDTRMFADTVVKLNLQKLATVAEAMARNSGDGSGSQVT
T1 sequence (P49597 1-434): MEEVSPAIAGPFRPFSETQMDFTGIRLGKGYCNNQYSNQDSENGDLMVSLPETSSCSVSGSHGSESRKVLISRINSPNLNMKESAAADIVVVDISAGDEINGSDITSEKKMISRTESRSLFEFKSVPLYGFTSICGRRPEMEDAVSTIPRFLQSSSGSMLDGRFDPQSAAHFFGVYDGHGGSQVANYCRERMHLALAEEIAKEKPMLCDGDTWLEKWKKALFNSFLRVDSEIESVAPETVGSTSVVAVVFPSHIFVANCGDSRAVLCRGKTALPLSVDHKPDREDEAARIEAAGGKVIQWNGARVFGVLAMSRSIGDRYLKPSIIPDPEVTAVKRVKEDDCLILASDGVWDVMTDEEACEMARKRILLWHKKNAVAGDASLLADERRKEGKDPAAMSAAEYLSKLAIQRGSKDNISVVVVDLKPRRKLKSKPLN
Source text: Effects of the phytohormone abscisic acid (ABA) on the behavior of plants under abiotic stress and the mechanism of action of ABA are described in the literature (cf. Abrams et al., WO97/23441, Park et al. Science, 2009, 324, 1068; Grill et al. Science, 2009, 324, 1064; Tanokura et al. Biophysics, 2011, 7, 123; Schroeder et al. Plant J. 2010, 61, 290). Therefore, it is possible with the aid of a suitable in vitro test system to derive a correlation between the action of ABA and the stress response of a plant under abiotic stress. In the event of water deficiency (drought stress), plants form the phytohormone abscisic acid (ABA). This binds, along with a co-regulator (Regulatory Component of ABA-Receptor=RCAR according to Grill et al. Science, 2009, 324, 1064 or PYR/PYL according to Cutler et al. Science, 2009, 324, 1068), to a phosphatase (e.g. ABI1, a type 2C protein phosphatase, also abbreviated to PP2C) and inhibits its activity. As a result, a “downstream” kinase (e.g. SnRK2) is no longer dephosphorylated. This kinase, which is thus active, via phosphorylation of transcription factors (e.g. AREB/ABF, cf. Yoshida et al., 2010, 61, 672), switches on a genetic protection program to increase drought stress tolerance. The assay described hereinafter utilizes the inhibition of the phosphatase ABI1 via the co-regulator RCAR11/PYR1 aus Arabidopsis thaliana. For the determination of activity, the dephosphorylation of 4-methylumbelliferyl phosphate (MUP) was measured at 460 nm. The in vitro assay was conducted in Greiner 384-well PS microplates F-well, using two controls: a) 0.5% dimethyl sulfoxide (DMSO) and b) 5 μM abscisic acid (ABA). The assay described here was generally conducted with substance concentrations of the appropriate chemical test substances in a concentration range of 0.1 μM to 100 μM in a solution of DMSO and water. The substance solution thus obtained, if necessary, was stirred with esterase from porcine liver (EC 3.1.1.1) at room temperature for 3 h and centrifuged at 4000 rpm for 30 min. A total volume of 45 μl was introduced into each cavity of the microplate, having the following composition: • 1) 5 μl of substance solution, i.e. a) DMSO 5% or b) abscisic acid solution or c) the corresponding example compound of the general formula (I) dissolved in 5% DMSO. • 2) 20 μl of enzyme buffer mix, composed of a) 40% by vol. of enzyme buffer (10 mL contain equal proportions by volume of 500 mM Tris-HCl pH 8, 500 mM NaCl, 3.33 mM MnCl2, 40 mM dithiothreitol (DTT)), b) 4% by vol. of ABI1 dilution (protein stock solution was diluted so as to give, after addition, a final concentration in the assay of 0.15 μg ABI1/well), c) 4% by vol. of RCAR11 dilution (enzyme stock was diluted so as to give, on addition of the dilution to the enzyme buffer mix, a final concentration in the assay of 0.30 μg enzyme/well), d) 5% by vol. of Tween20 (1%), e) 47% by vol. H2O bi-dist. • 3) 20 μl of substrate mix, composed of a) 10% by vol. of 500 mM Tris-HCl pH8, b) 10% by vol. of 500 mM NaCl, c) 10% by vol. of 3.33 mM MnCl2, d) 5% by vol. of 25 mM MUP, 5% by vol. of Tween20 (1%), 60% by vol. of H2O bi-dist.
Enzyme buffer mix and substrate mix were made up 5 minutes prior to the addition and warmed to a temperature of 35° C. On completion of pipetting of all the solutions and on completion of mixing, the plate was incubated at 35° C. for 20 minutes. Finally, a relative fluorescence measurement was made at 35° C. with a BMG Labtech “POLARstar Optima” microplate reader using a 340/10 nm excitation filter and a 460 nm emission filter. The efficacy of the compounds of the general formula (I) is reported in the table which follows using abscisic acid […] as comparative substance (No. 37) according to the following classification: ++++ (inhibition≧90%), +++ (90%>inhibition≧70%), ++ (70%>inhibition≧50%), + (50%>inhibition≧30%). […]

SMILES | EF [%] (TRZAS) (Triticum aestivum; 250 g/ha) | ABI1 inhibition [1] | EF [%] (TRZAS) (Triticum aestivum; 25 g/ha)
COC(=O)CN1C(=O)CCc2cc(NS(=O)(=O)Cc3ccccc3[N+](=O)[O-])ccc21 [A50-177] | 19 | ++ (70%>inhibition≧50%) | 
COC(=O)CN1C(=O)CC(C)(C)c2cc(NS(=O)(=O)Cc3cccc(C(F)(F)F)c3)ccc21 [B50-179] | 15 |  | 
N#CCCCN1C(=O)CCc2cc(NS(=O)(=O)Cc3cccc(Cl)c3)ccc21 [A48-166] | 13 | ++ (70%>inhibition≧50%) | 
COC(=O)CCN1C(=O)CCc2cc(NS(=O)(=O)Cc3cccc(Cl)c3)ccc21 [A51-166] | 20 | ++ (70%>inhibition≧50%) | 
CCOC(=O)CCN1C(=O)CC(C)(C)c2cc(NS(=O)(=O)Cc3ccc(Br)cc3)ccc21 [B52-172] | 14 |  | 
COC(=O)CCN1C(=O)CCc2cc(NS(=O)(=O)Cc3ccc(C(F)(F)F)cc3)ccc21 [A51-178] |  | ++++ (inhibition≧90%) | 10
COC(=O)CN1C(=O)CC(C)(C)c2cc(NS(=O)(=O)Cc3ccc(C(F)(F)F)cc3)ccc21 [B50-178] | 20 |  | 
COC(=O)CN1C(=O)CC(C)(C)c2cc(NS(=O)(=O)Cc3ccc([N+](=O)[O-])cc3)ccc21 [B50-175] |  |  | 12
CCOC(=O)CCN1C(=O)CC(C)(C)c2cc(NS(=O)(=O)Cc3cccc(Br)c3)ccc21 [B52-173] |  |  | 14
COC(=O)CN1C(=O)CC(C)(C)c2cc(NS(=O)(=O)Cc3ccc(F)cc3)ccc21 [B50-158] | 18 |  | 
CCOC(=O)CCN1C(=O)CC(C)(C)c2cc(NS(=O)(=O)Cc3ccc([N+](=O)[O-])cc3)ccc21 [B52-175] | 10 |  | 
COC(=O)CN1C(=O)CC(C)(C)c2cc(NS(=O)(=O)Cc3ccccc3Cl)ccc21 [B50-168] | 14 |  | 
COC(=O)CCN1C(=O)CC(C)(C)c2cc(NS(=O)(=O)Cc3ccc(F)cc3)ccc21 [B51-158] |  |  | 13
CCOC(=O)CCN1C(=O)CC(C)(C)c2cc(NS(=O)(=O)Cc3cccc(Cl)c3)ccc21 [B52-166] | 14 |  | 
COC(=O)CCN1C(=O)CCc2cc(NS(=O)(=O)Cc3cccc(C)c3)ccc21 [A51-153] | 16 | ++ (70%>inhibition≧50%) | 
COC(=O)CCN1C(=O)CC(C)(C)c2cc(NS(=O)(=O)Cc3cccc(Br)c3)ccc21 [B51-173] |  |  | 16
Cc1cccc(CS(=O)(=O)Nc2ccc3c(c2)CCC(=O)N3CC(F)(F)F)c1 [A2-153] |  | +++ (90%>inhibition≧70%) | 
COC(=O)CCN1C(=O)CCc2cc(NS(=O)(=O)Cc3ccc(C#N)cc3)ccc21 [A51-181] | 15 | ++++ (inhibition≧90%) | 
O=C1CCc2cc(NS(=O)(=O)Cc3ccc(Br)cc3)ccc2N1CC(F)(F)F [A2-172] |  | ++++ (inhibition≧90%) | 
CCOC(=O)CCN1C(=O)CC(C)(C)c2cc(NS(=O)(=O)Cc3ccc(F)cc3)ccc21 [B52-158] |  |  | 10
O=C1CCc2cc(NS(=O)(=O)Cc3ccc(F)cc3)ccc2N1CC(F)(F)F [A2-158] |  | ++++ (inhibition≧90%) | 
COCCN1C(=O)CCc2cc(NS(=O)(=O)Cc3ccc(C(F)(F)F)cc3)ccc21 [A38-178] |  | ++++ (inhibition≧90%) | 
Cc1ccc(CS(=O)(=O)Nc2ccc3c(c2)CCC(=O)N3CC(F)(F)C(F)(F)F)cc1 [A10-152] |  | ++++ (inhibition≧90%) | 
Cc1ccc(CS(=O)(=O)Nc2ccc3c(c2)CCC(=O)N3CC2CC2(Cl)Cl)cc1 (centres unmarked) [A32-152] |  | ++ (70%>inhibition≧50%) | 
N#Cc1ccc(CS(=O)(=O)Nc2ccc3c(c2)CCC(=O)N3CC(F)(F)F)cc1 [A2-181] |  | ++++ (inhibition≧90%) | 
N#Cc1ccc(CS(=O)(=O)Nc2ccc3c(c2)CCC(=O)N3CC(F)F)cc1 [A1-181] |  | ++++ (inhibition≧90%) | 
O=C1CCc2cc(NS(=O)(=O)Cc3ccc(Br)cc3)ccc2N1CC(F)F [A1-172] |  | ++++ (inhibition≧90%) | 
O=C1CCc2cc(NS(=O)(=O)Cc3ccc([N+](=O)[O-])cc3)ccc2N1CC1CC1 [A19-175] |  | ++++ (inhibition≧90%) | 
CCOCCN1C(=O)CCc2cc(NS(=O)(=O)Cc3ccc(F)cc3)ccc21 [A39-158] |  | + (50%>inhibition≧30%) | 

Source: patent US20170027172A1, “USE OF SUBSTITUTE OXO TETRAHYDROQUINOLINE SULFONAMIDES OR SALTS THEREOF FOR RAISING STRESS TOLERANCE OF PLANTS” (BAYER CROPSCIENCE AKTIENGESELLSCHAFT, priority 2014, published 2017)
